How the values were obtained:
B16-OVA cells = assay: Lactate dehydrogenase (LDH) release assay; type: cell-based, mouse; conditions: 300 μM and 500 μM
Description: (§1) A431 (human epidermoid carcinoma), MM649 (human melanoma), B16-OVA (B16-F10 mouse melanoma cell line stably transfected with chicken ovalbumin), MM415 (human melanoma) and FaDu (human hypopharyngeal carcinoma) cells were cultured in RPMI-1640, 10% FCS (complete medium) at 37° C., 5% CO2 in a humidified incubator. All cell lines used in this study were confirmed as mycoplasma negative using MycoAlert (Lonza). STR profiling was also performed to confirm the identity of the human cell lines used.
Measuring the release of LDH is a well-recognised assay to assess plasma membrane permeabilisation and detect cell death by necrosis (Chan et al. 2013). Three cell lines (A431, MM649 and B16-OVA) were used in these assays. Cells were plated at a density of 10,000 cells per well into clear 96-well plates (Corning, #3595; 100 μl of complete media) and the resultant plates incubated overnight as previously detailed. The following day, media was aspirated from each well and 50 μl of fresh medium was inserted. Stock solutions of Compound 1 were diluted to 2× final assay concentrations (1 mM and 600 μM) and 50 μl of these dilutions added to the required wells. […] OD490 nm and OD690 nm readings were recorded for each sample using a Hybrid Synergy H4 plate reader. Absorbance readings from drug treated samples were normalized to detergent treated controls to determine the % LDH release per well.

A431 cells = assay: IncuCyte cytotoxicity assay (propidium iodide); type: cell-based, human; conditions: 500 μM
Description: as §1
(§2) Four cancer cell lines (A431, MM649 (human melanoma), FaDu (HNSCC) and MM415 (human melanoma) were assessed for their response to epoxytigliane treatment. Cells were plated at a density of 10,000 cells per well (100 μl of complete media) into clear bottom black 96-well plates (Corning, #3603). Following 24 h incubation, the media within each well was aspirated and replaced with 50 μl of fresh media containing 1 μg/ml propidium iodide (PI). Stock solutions (20 mg/ml in ethanol) of four epoxytiglianes (Compounds 1, 2, 3 and 4) were diluted to 2× final assay concentration (1 mM) in identical media and inserted into a U-bottom 96 well plate in preparation for transfer. 50 μl of dilution was added to the required wells and the resultant plates inserted into an Essen Biosciences IncuCyte in preparation for imaging. Images were acquired at various time points (30 min, 1 h and at hourly intervals) for a total of 24 h.

MM415 cells = assay: IncuCyte cytotoxicity assay (propidium iodide); type: cell-based, human; conditions: 500 μM
Description: as §1, §2

FaDu cells = assay: IncuCyte cytotoxicity assay (propidium iodide); type: cell-based, human; conditions: 500 μM
Description: as §1, §2

MM649 cells = assay: IncuCyte cytotoxicity assay (propidium iodide); type: cell-based, human; conditions: 500 μM
Description: as §1, §2

[1] = after 120 minutes, majority of cells
[2] = differing extents and kinetics of onset

C/C=C(\C)C(=O)O[C@@H]1[C@@H](C)[C@@]2(O)[C@H]([C@@H]3C(C)(C)[C@]13OC(=O)[C@@H](C)CC)[C@@H]1O[C@]1(CO)[C@@H](O)[C@]1(O)C(=O)C(C)=C[C@H]12 [Compound 1, 12-tigloyl-13-(2-methylbutanoyl)-6,7-epoxy-4,5,9,12,13,20-hexahydroxy-1-tiglien-3-one]
LDH release compared to the controls (B16-OVA cells): significant release of LDH
propidium iodide staining (loss of plasma membrane integrity) (A431 cells; [1]): strong red staining
cell morphology (cytoplasmic swelling, blistering) (A431 cells; [2]): significant cytoplasmic swelling and ‘blistering’
propidium iodide staining (loss of plasma membrane integrity) (MM415 cells; [1]): strong red staining
cell morphology (cytoplasmic swelling, blistering) (MM415 cells; [2]): significant cytoplasmic swelling and ‘blistering’
propidium iodide staining (loss of plasma membrane integrity) (FaDu cells; [1]): strong red staining
cell morphology (cytoplasmic swelling, blistering) (FaDu cells; [2]): significant cytoplasmic swelling and ‘blistering’
propidium iodide staining (loss of plasma membrane integrity) (MM649 cells; [1]): strong red staining
cell morphology (cytoplasmic swelling, blistering) (MM649 cells; [2]): significant cytoplasmic swelling and ‘blistering’
